Values quoted from earlier work, collected in patent US20080014271A1, “NOVEL PHARMACEUTICAL COMPOSITIONS COMPRISING LEVETIRACETAM” (UCB, S.A., priority 2006, published 2008).

Test system: epilepsy

CC[C@H](C(N)=O)N1CCCC1=O [(R)-(+)-alpha-ethyl-2-oxo-1-pyrrolidine acetamide]
Activity in the treatment of epilepsy: completely lacks activity
